From patent US8198452B2, “Polymorphic forms and process” (Merck Patent Gesellschaft MIT Beschränkter Haftung, priority 2006, dated 2012) come the findings set out here.

SMILES strings stand for the structures.

Holding throughout (format): physicochemical
Data set [1] can be described thus: hygroscopicity of crystalline forms.
The nature of data set [2]: thermodynamic stability of crystalline forms. Conditions: versus form A2, A3 (b74 also the amorphous form, especially at room temperature).
The nature of data set [3]: chemical stability (thermal stability and light stability). The source says:
The expression chemical stability includes, but is not limited to, thermal stability and light stability.

Data set [4] can be described thus: stability of the basic, non-salt form.

As for `CN(C)CCNC(=O)NC[C@H]1CC[C@@H]2[C@H](O1)c1cc(C(F)(F)F)ccc1N[C@H]2c1ccccc1` [Form A1, 1-(2-Dimethylamino-ethyl)-3-((2R,4aS,5R,10bS)-5-phenyl-9-trifluoromethyl-3,4,4a,5,6,10b-hexahydro-2H-pyrano[3,2-c]quinolin-2-ylmethyl)-urea], in data set [1], the hygroscopicity result was “essentially non-hygroscopic”. In addition, in data set [1] (versus form A2, A3 and the amorphous form, especially at room temperature), the “hygroscopicity compared with other forms” value is “less hygroscopic than form A2, A3 and the amorphous form”. Besides, the “thermodynamic stability compared with other forms” value in data set [2] was “thermodynamically more stable than form A2 and A3”. Further, in data set [3], the “chemical stability (shelf-life, thermal stability and light stability)” value was “better chemical stability”.
Turning to `CN(C)CCNC(=O)NC[C@H]1CC[C@@H]2[C@H](O1)c1cc(C(F)(F)F)ccc1N[C@H]2c1ccccc1` [compound of formula II, 1-(2-Dimethylamino-ethyl)-3-((2R,4aS,5R,10bS)-5-phenyl-9-trifluoromethyl-3,4,4a,5,6,10b-hexahydro-2H-pyrano[3,2-c]quinolin-2-ylmethyl)-urea], in data set [4], the “stability in basic, i.e. non-salt, form” value is “especially stable”.
